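Compound exposure: 48 hours, 5 concentrations, 96-well plates. GI50 is the concentration that inhibits growth by half.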 The source made the active and inactive calls. Cut-off read from the data, not from the text of the source: active = GI50 up to about 1.1 µM and inactive = higher. Non-standard residues stand in square brackets, D forms with d. Residues, ends and D or L forms follow the SMILES beside them. ξ: configuration not given here. *: point of attachment. NMeY = CN[C@@H](Cc1ccc(O)cc1)C(=O)O; Cbz = O=C(OCc1ccccc1)*; ξA = CC(N)C(=O)O
Experiments:
Assay in all cases: NCI tumour cell line growth inhibition, 48 h
[1] = test system: BT-549
[2] = test system: DU-145
[3] = test system: HL-60
[4] = test system: IGROV-1
[5] = test system: K562
[6] = test system: KM12
[7] = test system: M14
[8] = test system: MCF7
[9] = test system: Malme-3M
[10] = test system: NCI-H460
[11] = test system: OVCAR-4
[12] = test system: OVCAR-5
[13] = test system: RXF 393
[14] = test system: SF-295
[15] = test system: SK-MEL-28
[16] = test system: SNB-75
[17] = test system: SR
[18] = test system: U-251
[19] = test system: UACC-62
[20] = test system: UO-31

| Structure (SMILES) | GI50 [1] | GI50 [2] | GI50 [3] | GI50 [4] | GI50 [5] | GI50 [6] | GI50 [7] | GI50 [8] | GI50 [9] | GI50 [10] | GI50 [11] | GI50 [12] | GI50 [13] | GI50 [14] | GI50 [15] | GI50 [16] | GI50 [17] | GI50 [18] | GI50 [19] | GI50 [20] |
| --- | --- | --- | --- | --- | --- | --- | --- | --- | --- | --- | --- | --- | --- | --- | --- | --- | --- | --- | --- | --- |
| CC(=O)C(=Cc1ccc(C=C(C(C)=O)C(C)=O)cc1)C(C)=O | 2.05 µM (inactive) | 3.81 µM (inactive) | 0.31 µM (active) | 2.02 µM (inactive) | 0.286 µM (active) | 0.12 µM (active) | 1.34 µM (inactive) | 1.87 µM (inactive) | 2.01 µM (inactive) | 2.59 µM (inactive) | 1.9 µM (inactive) | 2.79 µM (inactive) | 1.9 µM (inactive) | 2.11 µM (inactive) | 1.71 µM (inactive) | 1.78 µM (inactive) | 0.238 µM (active) | 1.79 µM (inactive) | 1.65 µM (inactive) | 1.6 µM (inactive) |
| NNC(=O)c1ccccc1NC(=O)/C(=C/c1ccccc1O)NC(=O)c1ccccc1 | 31.8 µM (inactive) | > 100 µM (inactive) | > 100 µM (inactive) | 14.5 µM (inactive) | > 100 µM (inactive) | 5.62 µM (inactive) | 55.6 µM (inactive) | 5.07 µM (inactive) | 25.4 µM (inactive) | 22.8 µM (inactive) | 27.3 µM (inactive) | > 100 µM (inactive) | 63 µM (inactive) | 44.8 µM (inactive) | > 100 µM (inactive) | 11.6 µM (inactive) | 0.0156 µM (active) | 33.6 µM (inactive) | 67.1 µM (inactive) | 11.9 µM (inactive) |
| CC(C)OC(=S)Nc1ccc(Cl)c(/C=N/OC(C)(C)C)c1 | 18.5 µM (inactive) | 13 µM (inactive) | 16.4 µM (inactive) | 17.5 µM (inactive) | 20 µM (inactive) | 12.5 µM (inactive) | 19.9 µM (inactive) | 22.9 µM (inactive) | 16.7 µM (inactive) | 17.4 µM (inactive) | 18.1 µM (inactive) | 16 µM (inactive) | 14.5 µM (inactive) | 13.5 µM (inactive) | 21.7 µM (inactive) | 23.5 µM (inactive) | 20.4 µM (inactive) | 17.1 µM (inactive) | 16.4 µM (inactive) | 13.9 µM (inactive) |
| COc1ccc(C[C@@H](C(=O)NCC(N)=O)N(C)C(=O)[C@@H]2CCCN2C(=O)[C@H](CC(C)C)NC(=O)C(C)NC(=O)OCc2ccccc2)cc1 (stereo not given in full) (Cbz-[ξA]LP[NMeY](Me)G-NH2) | > 100 µM (inactive) | > 100 µM (inactive) | > 100 µM (inactive) | > 100 µM (inactive) | > 100 µM (inactive) | > 100 µM (inactive) | > 100 µM (inactive) | > 100 µM (inactive) | > 100 µM (inactive) | > 100 µM (inactive) | > 100 µM (inactive) | > 100 µM (inactive) | > 100 µM (inactive) | > 100 µM (inactive) | > 100 µM (inactive) | > 100 µM (inactive) | > 100 µM (inactive) | > 100 µM (inactive) | > 100 µM (inactive) | > 100 µM (inactive) |
